Experimental data: paper PMC11219871, “Epigenetic-based differentiation therapy for Acute Myeloid Leukemia” (Nature Communications, 2024)
Values joined by “and” are separate entries in the source; they are usually repeats but may differ in a detail not shown here. Equal values may be shown once.

What was measured:
[1] = system: OCI-AML2; test: Cell proliferation assay: GI50; type: cell-based
Experimental: (§1) Cell proliferation was analyzed using the CellTiter 96 Aqueous One Solution Cell Proliferation Assay (Promega, Madison, WI). This is a colorimetric method for determining the number of viable cells in proliferation. For the assay, suspension cells were cultured in triplicate at a density of 1 × 10^6 cells/mL in 96-well plates (100.000 cells/well, 100 µL/well), using only the 60 inner wells to avoid any border effects. After 48 h of treatment with different doses of each compound (0, 0.001, 0.01, 0.1, 0.2, 0.4, 0.6, 0.8, 1, 2, 3, 4, 5 and 10 µM), the plates were centrifuged at 800 g for 10 min followed by removal of the medium. Then, the cells were incubated with 100 μL/well of medium and 20 μL/well of CellTiter 96 Aqueous One Solution reagent for 1–3 h. The absorbance was recorded at 490 and 650 nm as reference wavelengths using 96-well plate readers until the absorbance of the control cells without treatment was approximately 0.8 AU. The background absorbance was measured in wells with only cell line medium and solution reagent. First, the average of the absorbance from the control wells was subtracted from all other absorbance values. Data were calculated as the percentage of total absorbance of treated cells/absorbance of non-treated cells. The GI50 values of the different compounds were determined using non-linear regression plots made with GraphPad Prism v5 software.

[2] = system: UT-7; test: Cell proliferation assay: GI50; type: cell-based
Experimental: as §1

[3] = system: MONO-MAC-6; test: Cell proliferation assay: GI50; type: cell-based
Experimental: as §1

[4] = system: HEL; test: Cell proliferation assay: GI50; type: cell-based
Experimental: as §1

[5] = system: THP-1; test: Cell proliferation assay: GI50; type: cell-based
Experimental: as §1

[6] = system: GF-D8; test: Cell proliferation assay: GI50; type: cell-based
Experimental: as §1

[7] = system: KASUMI-1; test: Cell proliferation assay: GI50; type: cell-based
Experimental: as §1

[8] = system: TF-1; test: Cell proliferation assay: GI50; type: cell-based
Experimental: as §1

[9] = system: OCI-AML3; test: Cell proliferation assay: GI50; type: cell-based
Experimental: as §1

[10] = system: NB-4; test: Cell proliferation assay: GI50; type: cell-based
Experimental: as §1

[11] = system: M-07e; test: Cell proliferation assay: GI50; type: cell-based
Experimental: as §1

[12] = system: HEL; test: Differentiation assay, CD11b / annexin-V flow cytometry; type: cell-based; conditions: HEL cell line; replicates 1-3 (Figure 2A)
Experimental: (§2) Next, the cells were washed twice with phosphate-buffered saline (PBS) and resuspended in 1X Binding Buffer at a concentration of 1 × 10^6 cells/mL. An 8-µL aliquot of APC-CD11b (BD Pharmingen, Franklin Lakes, NJ, USA) and 1 µL of FITC annexin-V (AV) (BD Pharmingen, Franklin Lakes, NJ, USA) antibodies were added and incubated for 15 min at room temperature in the dark. Finally, after the addition of 400 µL of 1X Binding Buffer to each tube, samples were collected on a BD FACSCanto flow cytometer (Becton Dickinson, San Jose, CA, USA) and analyzed using FlowJo software.

[13] = system: THP-1; test: as above; type: cell-based; conditions: THP-1 cell line; replicates 1-3 (Figure 2A)
Experimental: as §2

[14] = system: TF-1; test: as above; type: cell-based; conditions: TF-1 cell line; replicates 1-3 (Figure 2A)
Experimental: as §2

[15] = system: ML-2; test: Proteome analysis (LC-MS/MS); type: cell-based, human; conditions: ML-2, 25% GI50, 12 h
Experimental: After cooling down, lysates were incubated at 25 °C with 10 units of DNAse (Benzonase, Merk) and sonicated for 15 min in a Bioruptor for DNA shearing. Protein concentration was determined using microBCA, using BSA as standard. […] LysC, Wako). […] Peptides (500 μg) were labeled with Thermo Scientific […] Isobaric reagents for 1 h at 25 C. […] The final mixture was desalted using a 500 mg Sep-Pak C18t cartridge (Waters) and dried prior to high pH reverse phase HPLC pre-fractionation. Labeled peptides were fractionated offline through a high pH reverse phase chromatography using an Ultimate 3000 HPLC system equipped with a sample collector. Briefly, peptides were dissolved in 1200 μL of Buffer A (10 mM NH4OH) and loaded onto a XBridge BEH130 C18 column (3.5 μm, 250 mm length and 3.5 mm ID, Waters). […] One-minute fractions (500 μL) from minute 15 to 65 were collected and neutralized with 10% formic acid. […] Pooled fractions were snap-frozen and lyophilized. LC-MS/MS was done by coupling an UltiMate 3000 RSLCnano LC system to an Orbitrap Exploris 480 mass spectrometer (Thermo Fisher Scientific). […] The mass spectrometer was operated in a data-dependent mode, with an automatic switch between MS and MS/MS scans using a top 15 method. (Intensity threshold ≥ 1e4, dynamic exclusion of 20 sec and excluding charges unassigned, +1 and ≥ +7). MS spectra were acquired from 350 to 1500 m/z with a resolution of 60,000 FMHW (200 m/z). Ion peptides were isolated using a 0.7 Th window and fragmented using higher-energy collisional dissociation (HCD) with a normalized collision energy NCE of 36. MS/MS spectra were acquired with a fixed first mass of 120 m/z and a resolution of 45,000 FMHW (200 m/z). […] For total protein analysis, raw files were processed with MaxQuant (v 2.4.9.0) using the standard settings against the same protein database. […] Briefly, proteins/sites with less than eighteen valid values were filtered out. Then, a global normalization of log2-transformed intensities across samples was performed using the LOESS function. Differential analysis was done using the empirical Bayes statistics Limma. […] The FDR was estimated to be below 2% by Benjamini-Hochberg.

[16] = Homo sapiens, OCI-AML2, OCI-AML2, replicates 1-3
[17] = Homo sapiens, UT7, 48 h, UT-7, 48 h
[18] = Homo sapiens, UT7, UT-7, replicates 1-3
[19] = Homo sapiens, MONO-MAC-6, MONO-MAC-6, replicates 1-3
[20] = Homo sapiens, THP-1, replicates 1-3
[21] = Homo sapiens, Kasumi 1, 48 h, KASUMI-1, 48 h
[22] = Homo sapiens, Kasumi 1, KASUMI-1, replicates 1-3
[23] = Homo sapiens, TF-1, TF-1, replicates 1-3
[24] = Homo sapiens, OCI-AML-3, OCI-AML3, 48 h
[25] = Homo sapiens, OCI-AML-3, OCI-AML3, replicates 1-3
[26] = Homo sapiens, NB-4, NB-4, replicates 1-3

## CC1=C(/C=C/C(C)=C/C=C/C(C)=C/C(=O)O)C(C)(C)CCC1 [ATRA, all-trans retinoic acid, reference compound]
[1]; Homo sapiens, OCI-AML2, 48 h
  GI50: > 10000 nM
[1]; [16]
  GI50: > 10000 nM
[1]; OCI-AML2, replicates 1-3
  GI50: > 10000 nM
[2]; [17]
  GI50: > 10000 nM
[2]; [18]
  GI50: > 10000 nM
[2]; UT-7, replicates 1-3
  GI50: > 10000 nM
[3]; Homo sapiens, MONO-MAC-6, 48 h
  GI50: > 10000 nM
[3]; [19]
  GI50: > 10000 nM
[3]; MONO-MAC-6, replicates 1-3
  GI50: > 10000 nM
[4]; Homo sapiens, 48 h
  GI50: > 10000 nM
[4]; Homo sapiens, replicates 1-3
  GI50: > 10000 nM
[4]; replicates 1-3
  GI50: > 10000 nM
[5]; Homo sapiens, THP-1, 48 h
  GI50: > 10000 nM
[5]; [20]
  GI50: > 10000 nM
[5]; THP-1, replicates 1-3
  GI50: > 10000 nM
[6]; 48 h, GF-D8, 48 h
  GI50: > 10000 nM
[6]; GF-D8, replicates 1-3
  GI50: > 10000 nM
[7]; [21]
  GI50: > 10000 nM
[7]; [22]
  GI50: > 10000 nM
[7]; KASUMI-1, replicates 1-3
  GI50: > 10000 nM
[8]; Homo sapiens, TF-1, 48 h
  GI50: > 10000 nM
[8]; [23]
  GI50: > 10000 nM
[8]; TF-1, replicates 1-3
  GI50: > 10000 nM
[9]; [24]
  GI50: > 10000 nM
[9]; [25]
  GI50: > 10000 nM
[9]; OCI-AML3, replicates 1-3
  GI50: > 10000 nM
[10]; Homo sapiens, NB-4, 48 h
  GI50: > 10000 nM
[10]; [26]
  GI50: > 10000 nM
[10]; NB-4, replicates 1-3
  GI50: > 10000 nM
[11]; 48 h
  GI50: > 10000 nM
[11]; replicates 1-3
  GI50: > 10000 nM
[12]
  CD11b (%): 1.5% and 0.9% and 3.54%
[13]
  CD11b (%): 48.6% and 40.2% and 38.7%
[14]
  CD11b (%): 36.7% and 30.4% and 33.4%

## COc1cc2nc(-c3ccc(C)o3)cc(NCC3CCN(c4ncc(C(=O)NO)cn4)CC3)c2cc1OC [CM-444, 2-[4-[[[6,7-dimethoxy-2-(5-methyl-2-furyl)-4-quinolyl]amino]methyl]-1-piperidyl]pyrimidine-5-carbohydroxamic acid]
[15]
  proteins significantly regulated, of 8342 quantified: 9.5%
[1]; Homo sapiens, OCI-AML2, 48 h
  GI50: 640 nM
[1]; [16]
  GI50: 736 nM
[1]; OCI-AML2, replicates 1-3
  GI50: 574 nM and 612 nM
[2]; [17]
  GI50: 970 nM
[2]; [18]
  GI50: 875 nM
[2]; UT-7, replicates 1-3
  GI50: 1070 nM and 965 nM
[3]; Homo sapiens, MONO-MAC-6, 48 h
  GI50: 470 nM
[3]; MONO-MAC-6, replicates 1-3
  GI50: 215 nM and 607 nM and 588 nM
[4]; Homo sapiens, replicates 1-3
  GI50: 1590 nM
[4]; replicates 1-3
  GI50: 1120 nM and 938 nM
[5]; Homo sapiens, THP-1, 48 h
  GI50: > 10000 nM
[5]; [20]
  GI50: > 10000 nM
[5]; THP-1, replicates 1-3
  GI50: > 10000 nM
[6]; GF-D8, replicates 1-3
  GI50: 7250 nM and 4120 nM and 3690 nM
[7]; [21]
  GI50: 668 nM
[7]; [22]
  GI50: 521 nM
[7]; KASUMI-1, replicates 1-3
  GI50: 698 nM and 786 nM
[8]; [23]
  GI50: 3870 nM
[8]; TF-1, replicates 1-3
  GI50: 3250 nM and 3500 nM
[9]; [24]
  GI50: > 10000 nM
[9]; [25]
  GI50: > 10000 nM
[9]; OCI-AML3, replicates 1-3
  GI50: > 10000 nM
[10]; Homo sapiens, NB-4, 48 h
  GI50: 668 nM
[10]; [26]
  GI50: 658 nM
[10]; NB-4, replicates 1-3
  GI50: 785 nM and 563 nM
[11]; replicates 1-3
  GI50: 1330 nM and 1200 nM and 1180 nM
[12]
  CD11b (%): 12.7% and 10.5% and 8.2%
[13]
  CD11b (%): 99.1% and 93.5% and 92.1%
[14]
  CD11b (%): 85.3% and 79.1% and 71.7%

## COc1cc2nc(-c3cc(C)oc3C)cc(NCC3CCN(c4ncc(C(=O)NO)cn4)CC3)c2cc1OC [CM-1758, 2-[4-[[[2-(2,5-dimethyl-3-furyl)-6,7-dimethoxy-4-quinolyl]amino]methyl] -1-piperidyl]pyrimidine-5-carbohydroxamic acid]
[15]
  proteins significantly regulated, of 8342 quantified: 8.8%
[1]; Homo sapiens, OCI-AML2, 48 h
  GI50: 774 nM
[1]; [16]
  GI50: 954 nM
[1]; OCI-AML2, replicates 1-3
  GI50: 712 nM and 655 nM
[2]; [18]
  GI50: 3680 nM
[2]; UT-7, replicates 1-3
  GI50: 3940 nM and 3670 nM
[3]; Homo sapiens, MONO-MAC-6, 48 h
  GI50: 617 nM
[3]; [19]
  GI50: 785 nM
[3]; MONO-MAC-6, replicates 1-3
  GI50: 600 nM and 466 nM
[4]; Homo sapiens, replicates 1-3
  GI50: 1880 nM
[4]; replicates 1-3
  GI50: 1320 nM and 1360 nM
[5]; Homo sapiens, THP-1, 48 h
  GI50: > 10000 nM
[5]; [20]
  GI50: > 10000 nM
[5]; THP-1, replicates 1-3
  GI50: > 10000 nM
[6]; 48 h, GF-D8, 48 h
  GI50: > 10000 nM
[6]; GF-D8, replicates 1-3
  GI50: > 10000 nM
[7]; [21]
  GI50: 578 nM
[7]; [22]
  GI50: 721 nM
[7]; KASUMI-1, replicates 1-3
  GI50: 635 nM and 379 nM
[8]; [23]
  GI50: 2960 nM
[8]; TF-1, replicates 1-3
  GI50: 2580 nM and 2690 nM
[9]; [24]
  GI50: > 10000 nM
[9]; [25]
  GI50: > 10000 nM
[9]; OCI-AML3, replicates 1-3
  GI50: > 10000 nM
[10]; Homo sapiens, NB-4, 48 h
  GI50: 857 nM
[10]; [26]
  GI50: 987 nM
[10]; NB-4, replicates 1-3
  GI50: 714 nM and 870 nM
[11]; replicates 1-3
  GI50: 1320 nM and 1990 nM and 1190 nM
[12]
  CD11b (%): 14.82% and 10.2% and 20.4%
[13]
  CD11b (%): 90.5% and 96.2% and 93.2%
[14]
  CD11b (%): 72.3% (2×) and 76.2%

## Cc1[nH]c2ccccc2c1CCNCc1ccc(/C=C/C(=O)NO)cc1 [Panobinostat, reference compound]
[15]
  proteins significantly regulated, of 8342 quantified: 5.8%

## O=C(CCCCCCC(=O)Nc1ccccc1)NO [Vorinostat, reference compound]
[15]
  proteins significantly regulated, of 8342 quantified: 2.7%
